Assays:
[1] = tested on: GLXMAW (Soybean, Williams); experiment: Preemergence herbicidal evaluation; assay type: in vivo, Glycine max, (L.) Merr. cv Williams; conditions: Rate 0.2500 kg/ha; preemergence; rated 4-5 weeks after treatment
Description: (§1) Results of herbicide evaluation are expressed on a rating scale (0-9). The scale is based upon a visual observation of plant stand, vigor, malformation, size, chlorosis and overall plant appearance as compared with a control.
(§2) The preemergence herbicidal activity of the test compounds of the present invention is exemplified by the following tests in which the seeds of a variety of monocotyledonous and dicotyledonous plants are separately mixed with potting soil and planted on top of approximately one inch of soil in separate pint cups. […] The treated cups are then placed on greenhouse benches, watered and cared for in accordance with conventional greenhouse procedures. From four to five weeks after treatment, the tests are terminated and each cup is examined and rated according to the rating system provided in Example 87. The plant species used and the compounds evaluated are the same as those shown in Example 87.

SETVI (Setaria viridis) [2] = experiment: Preemergence herbicidal evaluation; assay type: in vivo, (L.) Beau; conditions: Rate 0.2500 kg/ha; preemergence; rated 4-5 weeks after treatment
Description: as §1, §2

[3] = tested on: ECHCG (Echinochloa crus-galli); experiment: Preemergence herbicidal evaluation; assay type: in vivo, (L.) Beau; conditions: Rate 0.2500 kg/ha; preemergence; rated 4-5 weeks after treatment
Description: as §1, §2

[4] = tested on: ECHCG (Echinochloa crus-galli); experiment: Postemergence herbicidal evaluation; assay type: in vivo, (L.) Beau; conditions: rate 0.0620 kg/ha
Description: (§3) In the tests, seedling plants are grown in jiffy flats for about two weeks. […] After spraying, the plants are placed on greenhouse benches and are cared for in accordance with conventional greenhouse procedures. From four to five weeks after treatment, the seedling plants are examined and rated according to the rating system set forth below. Where more than one test is involved for a given compound, the data are averaged.
as §1

[5] = tested on: IPOHE (Ipomoea hederacea); experiment: Postemergence herbicidal evaluation; assay type: in vivo, (L.) Jacq.; conditions: rate 0.0620 kg/ha
Description: as §3, §1

[6] = tested on: GLXMAW (Soybean, Williams); experiment: Postemergence herbicidal evaluation; assay type: in vivo, Glycine max, (L.) Merr. cv Williams; conditions: rate 0.0620 kg/ha
Description: as §3, §1

[7] = tested on: IPOHE (Ipomoea hederacea); experiment: Preemergence herbicidal evaluation; assay type: in vivo, (L.) Jacq.; conditions: Rate 0.2500 kg/ha; preemergence; rated 4-5 weeks after treatment
Description: as §1, §2

CYPIR (Cyperus iria) = experiment: Flooded paddy, preemergence weed control; assay type: in vivo; conditions: rate 0.1250 kg/ha, rated 3-4 weeks after treatment, 0-9 rating scale
Description: as §1
(§4) Preemergence herbicidal activity under flooded paddy conditions is determined as follows: plant seeds or propagating organs are planted in the top 0.5 cm of silt loam soil in 32 oz. plastic containers with a diameter of 10.5 cm and no drainage holes. Water is added to these containers and maintained at 1.5 to 3 cm above the soil surface for the duration of the experiment. […] The treated containers are placed on greenhouse benches and cared for in accordance with conventional greenhouse procedures.

[8] = tested on: CYPSE (Cyperus serotinus); experiment: Flooded paddy, preemergence weed control; assay type: in vivo, Rottb.; conditions: rate 0.1250 kg/ha, rated 3-4 weeks after treatment, 0-9 rating scale
Description: as §1
Preemergence herbicidal activity under flooded paddy conditions is determined as follows: plant seeds or propagating organs are planted in the top 0.5 cm of silt loam soil in 32 oz. plastic containers with a diameter of 10.5 cm and no drainage holes. Water is added to these containers and maintained at 1.5 to 3 cm above the soil surface for the duration of the experiment. The test compounds are applied as aqueous/acetone mixtures 50/50 v/v pipetted directly into the flood water to give the equivalent of about 0.0080 to 0.1250 kg/ha of active ingredient. The treated containers are placed on greenhouse benches and cared for in accordance with conventional greenhouse procedures. Three to four weeks after treatment, the test is terminated and each container is examined and herbicidal effect rated according to the rating system provided in Example 87.

SETVI (Setaria viridis) [9] = experiment: Postemergence herbicidal evaluation; assay type: in vivo, (L.) Beau; conditions: rate 0.0620 kg/ha
Description: In the tests, seedling plants are grown in jiffy flats for about two weeks. The test compounds are dispersed in 50/50 acetone/water mixtures containing 0.5% TWEEN® 20, a polyoxyethylene sorbitan monolaurate surfactant of Atlas Chemical Industries, in sufficient quantities to provide the equivalent of about 0.0040 kg to 1.000 kg per hectare of active compound when applied to the plants through a spray nozzle operating at 40 psi for a predetermined time. After spraying, the plants are placed on greenhouse benches and are cared for in accordance with conventional greenhouse procedures. From four to five weeks after treatment, the seedling plants are examined and rated according to the rating system set forth below. Where more than one test is involved for a given compound, the data are averaged.
as §1

[10] = tested on: TRZAWR (Wheat, Winter, cv Riband); experiment: Preemergence herbicidal evaluation; assay type: in vivo, Triticum aestivum; conditions: Rate 0.2500 kg/ha; preemergence; rated 4-5 weeks after treatment
Description: as §1, §2

GALAP (Galium aparine) [11] = experiment: Preemergence herbicidal evaluation; assay type: in vivo; conditions: Rate 0.2500 kg/ha; preemergence; rated 4-5 weeks after treatment
Description: as §1, §2

[12] = tested on: TRZAWR (Wheat, Winter, cv Riband); experiment: Postemergence herbicidal evaluation; assay type: in vivo, Triticum aestivum; conditions: rate 0.0620 kg/ha
Description: as §3, §1

[13] = tested on: SAGPY (Sagittaria pygmaea); experiment: Flooded paddy, preemergence weed control; assay type: in vivo, L.; conditions: rate 0.1250 kg/ha, rated 3-4 weeks after treatment, 0-9 rating scale
Description: as §1, §4

[14] = tested on: AMBEL (Ambrosia artemisifolia); experiment: Postemergence herbicidal evaluation; assay type: in vivo, L.; conditions: rate 0.0620 kg/ha
Description: as §3, §1

[15] = tested on: CASOB (Cassia obtusifolia); experiment: Postemergence herbicidal evaluation; assay type: in vivo, L.; conditions: rate 0.0620 kg/ha
Description: as §3, §1

[16] = tested on: ABUTH (Abutilon theophrasti); experiment: Preemergence herbicidal evaluation; assay type: in vivo, Medic.; conditions: Rate 0.2500 kg/ha; preemergence; rated 4-5 weeks after treatment
Description: as §1, §2

ORYSAT (Rice, Tebonnet) [17] = experiment: Preemergence herbicidal evaluation; assay type: in vivo, Oryza sativa, (L.) Tebonnet; conditions: Rate 0.2500 kg/ha; preemergence; rated 4-5 weeks after treatment
Description: as §1, §2

ORYSAT (Rice, Tebonnet) [18] = experiment: Postemergence herbicidal evaluation; assay type: in vivo, Oryza sativa, (L.) Tebonnet; conditions: rate 0.0620 kg/ha
Description: as §3, §1

ZEAMX (Corn, Field) [19] = experiment: Postemergence herbicidal evaluation; assay type: in vivo, Zea mays, L.; conditions: rate 0.0620 kg/ha
Description: as §3, §1

[20] = tested on: AMBEL (Ambrosia artemisifolia); experiment: Preemergence herbicidal evaluation; assay type: in vivo, L.; conditions: Rate 0.2500 kg/ha; preemergence; rated 4-5 weeks after treatment
Description: as §1, §2

[21] = tested on: CHEAL (Chenopodium album); experiment: Preemergence herbicidal evaluation; assay type: in vivo, L.; conditions: Rate 0.2500 kg/ha; preemergence; rated 4-5 weeks after treatment
Description: as §1, §2

[22] = tested on: CASOB (Cassia obtusifolia); experiment: Preemergence herbicidal evaluation; assay type: in vivo, L.; conditions: Rate 0.2500 kg/ha; preemergence; rated 4-5 weeks after treatment
Description: as §1, §2

ORYSAT (Rice, Tebonnet) [23] = experiment: Flooded paddy, post-transplant rice tolerance; assay type: in vivo, Oryza sativa, (L.) Tebonnet; conditions: in vivo
Description: as §1
The tolerance of transplanted rice to post-transplanted herbicide application is determined as follows: two ten-day-old rice seedlings (cv. Tebonnet) are transplanted into silt loam soil in 32 oz. plastic containers with a diameter of 10.5 cm and no drainage holes. After transplanting, the containers are flooded and the water level is maintained at 1.5 to 3 cm above the soil surface. […] The treated containers are placed on greenhouse benches, watered such that the water level is maintained as stated above, and cared for in accordance with conventional greenhouse procedures.

ZEAMX (Corn, Field) [24] = experiment: Preemergence herbicidal evaluation; assay type: in vivo, Zea mays, L.; conditions: Rate 0.2500 kg/ha; preemergence; rated 4-5 weeks after treatment
Description: as §1, §2

GALAP (Galium aparine) [25] = experiment: Postemergence herbicidal evaluation; assay type: in vivo; conditions: rate 0.0620 kg/ha
Description: as §3, §1

[26] = tested on: ABUTH (Abutilon theophrasti); experiment: Postemergence herbicidal evaluation; assay type: in vivo, Medic.; conditions: rate 0.0620 kg/ha
Description: as §3, §1

[27] = tested on: ECHORC (Echinochloa oryzoides); experiment: Flooded paddy, preemergence weed control; assay type: in vivo, Echinochloa oryzoides (Ard.) Fritsch.; conditions: rate 0.1250 kg/ha, rated 3-4 weeks after treatment, 0-9 rating scale
Description: as §1, §4

Cn1c(C(F)(F)F)cc(=O)n(-c2ccc3c(c2)C(c2cccc[n+]2[O-])=NS3(=O)=O)c1=O [Compound 15, 1-methyl-3-[3-(2-pyridyl)-1,2-benzisothiazol-5-yl]-6-(trifluoromethyl)uracil N′,S,S-trioxide] was tested, and the “GLXMAW preemergence herbicidal rating” value [1] was 2.0, the “SETVI preemergence herbicidal rating” value (SETVI (Setaria viridis) [2]) was 5.0 and the “ECHCG preemergence herbicidal rating” value [3] was 5.0. For the same molecule, the “Postemergence herbicidal rating, ECHCG” value [4] was 1.0, the “Postemergence herbicidal rating, IPOHE” value [5] was 9.0 and the “Postemergence herbicidal rating, GLXMAW” value [6] was 5.0. The “IPOHE preemergence herbicidal rating” value [7] was 6.0, the “herbicidal rating, CYPIR” value (CYPIR (Cyperus iria)) was 0.0 and the “herbicidal rating, CYPSE” value [8] was 0.0. The “Postemergence herbicidal rating, SETVI” value (SETVI (Setaria viridis) [9]) was 1.0, the “TRZAWR preemergence herbicidal rating” value [10] was 3.0 and the “GALAP preemergence herbicidal rating” value (GALAP (Galium aparine) [11]) was 0.0. For the same molecule, the “Postemergence herbicidal rating, TRZAWR” value [12] was 3.5, the “herbicidal rating, SAGPY” value [13] was 0.0 and the “Postemergence herbicidal rating, AMBEL” value [14] was 9.0. The “Postemergence herbicidal rating, CASOB” value [15] was 1.0, the “ABUTH preemergence herbicidal rating” value [16] was 7.0 and the “ORYSAT preemergence herbicidal rating” value (ORYSAT (Rice, Tebonnet) [17]) was 3.0. The “Postemergence herbicidal rating, ORYSAT” value (ORYSAT (Rice, Tebonnet) [18]) was 3.5, the “Postemergence herbicidal rating, ZEAMX” value (ZEAMX (Corn, Field) [19]) was 5.0 and the “AMBEL preemergence herbicidal rating” value [20] was 7.0. The “CHEAL preemergence herbicidal rating” value [21] was 9.0, the “CASOB preemergence herbicidal rating” value [22] was 0.0 and the “herbicidal rating, ORYSAT (rice tolerance)” value (ORYSAT (Rice, Tebonnet) [23]) was 0.0. For the same molecule, the “ZEAMX preemergence herbicidal rating” value (ZEAMX (Corn, Field) [24]) was 1.0, the “Postemergence herbicidal rating, GALAP” value (GALAP (Galium aparine) [25]) was 1.0 and the “Postemergence herbicidal rating, ABUTH” value [26] was 6.0. For the same molecule, the “herbicidal rating, ECHORC” value [27] was 0.0.
